The record followed here is patent publication US12234223B2, “Phthalazinone compound, and preparation method therefor and medical use thereof” (SHANGHAI JEMINCARE PHARMACEUTICALS CO., LTD, priority 2020, dated 2025).

The assay deals with T1, Androgen receptor (Homo sapiens, UniProt P10275).
T1 construct: Dmax: a maximum degradation degree of AR in VCaP cells; endogenous in cells; host or cells: VCaP cells
T1 sequence (P10275 1-920): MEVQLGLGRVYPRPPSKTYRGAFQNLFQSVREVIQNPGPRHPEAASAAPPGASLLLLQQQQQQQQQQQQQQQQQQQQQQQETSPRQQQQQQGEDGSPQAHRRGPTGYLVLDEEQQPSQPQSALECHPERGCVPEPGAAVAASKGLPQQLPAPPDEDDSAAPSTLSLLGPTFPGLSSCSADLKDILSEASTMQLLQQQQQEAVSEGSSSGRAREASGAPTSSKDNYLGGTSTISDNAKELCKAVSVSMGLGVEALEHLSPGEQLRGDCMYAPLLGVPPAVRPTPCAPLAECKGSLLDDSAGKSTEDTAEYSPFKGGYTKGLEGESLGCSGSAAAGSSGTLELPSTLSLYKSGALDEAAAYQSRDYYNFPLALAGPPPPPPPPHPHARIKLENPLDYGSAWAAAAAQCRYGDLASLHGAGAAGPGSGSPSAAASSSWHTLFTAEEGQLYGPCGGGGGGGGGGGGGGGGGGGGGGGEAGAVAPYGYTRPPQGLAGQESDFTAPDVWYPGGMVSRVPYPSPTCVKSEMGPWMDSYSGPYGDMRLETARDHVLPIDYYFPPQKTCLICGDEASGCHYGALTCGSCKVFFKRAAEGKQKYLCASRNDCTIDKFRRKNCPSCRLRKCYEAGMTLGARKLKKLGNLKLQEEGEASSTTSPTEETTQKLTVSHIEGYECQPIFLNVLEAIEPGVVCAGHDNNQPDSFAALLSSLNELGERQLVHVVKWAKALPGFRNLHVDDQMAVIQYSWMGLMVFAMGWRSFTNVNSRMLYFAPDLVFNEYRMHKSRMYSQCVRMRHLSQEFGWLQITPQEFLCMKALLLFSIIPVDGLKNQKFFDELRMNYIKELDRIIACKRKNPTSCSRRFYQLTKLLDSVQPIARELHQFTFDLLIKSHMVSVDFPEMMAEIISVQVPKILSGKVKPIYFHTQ
Nature of the assay: Androgen receptor In-Cell-Western assay (AR degradation in VCaP cells). It is filed as cell-based. As to conditions: 24 hours treatment; for DC50: concentration for half the maximum degradation degree of AR in VCaP cells; for Dmax: maximum degradation degree of AR in VCaP cells. The procedure: This assay evaluated compound performance in VCap cells. An intracellular androgen receptor was assayed by In-Cell-Western according to the assay procedure described below.
In a 96-well cell culture plate (Corning 3599) pretreated by poly-D-Lysin, Vcap cells were seeded to a Vcap cell assay medium [phenol red containing DMEM (Gibco Cat. No.: 11995065); fetal bovine serum FBS (Gibco Cat. No.: 10099141C)] at a volume of 100 μL/well and a cell density of 50,000 cells/well. Cells were cultured for at least two days. • 1. First, cells were treated with a compound. The compound was subjected to a gradient dilution by using DMSO and a cell culture medium, so that DMSO contained in the cell culture plate was diluted to 0.5%: a polypropylene plate was used according to the following protocol: • (1) (i) A 200× stock solution plate was prepared in DMSO; (ii) a 10 mM stock solution was diluted at 1:4 (10 μL stock solution+40 μL DMSO=2000 uM) with DMSO to enter row 2; (iii) a 1:4 (10 μL protac+40 μL DMSO) gradient dilution was performed from row 2 to row 9, row 1 was reserved for a 2000 uM reference compound and row 10 was reserved for DMSO. (iv) There were 8 concentrations (the final concentrations on the 200× plate was 2000 uM, 400 uM, 80 uM, etc.) in total. (2) (i) A 3× stock solution was prepared in the medium; (ii) 3 μL of the 200× stock solution was transferred to 197 μL of the medium (by a 12-channel pipette, from row 1 to row 10), i.e. a 3× stock solution plate. (iii) Uniform mixing was performed for the stock solution plate. (3) (i) The medium of Vcap cells was replaced with a fresh medium, with the medium volume of 100 μL. (ii) The uniformly-mixed 3× stock solution was transferred to the cell culture plate (by the 12-channel pipette, 50 μL of the stock solution was transferred from row 1 to row 10). (iii) The cells were cultured for 24 hours. • 2. The expression level of the intracellular androgen receptor after compound treatment was detected, and assay was performed according to the following method. • (1) (i) An equal volume of 8% paraformaldehyde was added to the cell culture plate for cell fixation. A fixative solution in the cell plate was discarded, and the cell plate was washed three times with PBS. (ii) A Triton solution was prepared (the stock solution was diluted at 1:1000). The solution in the cell plate was discarded, and a volume of 200 μL of a Triton diluent was added to each well. (iii) A 2× blocking solution was prepared (a 10× blocking stock solution was diluted at 1:4). The solution in the cell plate was discarded, and a volume of 100 μL of the 2× blocking solution was added to each well. (iv) A primary antibody solution (Androgen receptor Rabbit mAb, Cell Signaling Technology Cat. No.: 5153; 1:1000 dilution) was prepared. The solution in the cell plate was discarded, a volume of 100 μL of a primary antibody diluent was added to each well, and incubation was performed at 4 degrees overnight. (v) The primary antibody solution was discarded, and the cell plate was washed with 1× Wash buffer (Wash buffer in the present application means a washing buffer solution). (vi) A secondary antibody solution (Goat anti Rabbit IgG (H+L) Secondary Antibody, HRP, Thermo Cat. No.: 31460; 1:5000 dilution) was prepared, and a volume of 100 μL of a secondary antibody diluent was added to each well for incubation. (vii) The secondary antibody solution in the cell plate was discarded, and the cell plate was washed with 1× Wash buffer. (viii) A TMB chromogenic solution (BD Cat. No.: 550534) was prepared, and a volume of 100 μL of the chromogenic solution was added to each well. (ix) A volume of 50 μL of a stop solution (BD Cat. No.: 550534) was added to each well. (x) Absorption values at OD 450 nm and 570 nm were read by EnVision. (2) (i) Normalized analysis was performed for the number of cells in each well. The solution in the cell plate was discarded, and the cell plate was washed three times with wash buffer. […]

As to `CC1(C)[C@H](NC(=O)c2ccc(N3CCC(CN4CCN(c5ccc6c(=O)n(C7CCC(=O)NC7=O)ncc6c5)CC4)CC3)cc2)C(C)(C)[C@H]1Oc1ccc(C#N)c(Cl)c1` (stereo partly drawn) [Compound 1], the DC50 is 10 nM and the Dmax stood at 97%.

Turning to `CC1(C)[C@H](NC(=O)c2ccc(N3CCC(CN4CCN(c5ccc6c(=O)n([C@H]7CCC(=O)NC7=O)ncc6c5)CC4)CC3)cc2)C(C)(C)[C@H]1Oc1ccc(C#N)c(Cl)c1` [Compound 28A], half-maximal degradation (DC50) was put at 2.7 nM and the Dmax came out at 126%.

For the compound `CC1(C)[C@H](NC(=O)c2ccc(N3CCC(CN4CCN(c5ccc6c(=O)n(C7CCC(=O)NC7=O)nc(F)c6c5)CC4)CC3)cc2)C(C)(C)[C@H]1Oc1ccc(C#N)c(Cl)c1` (stereo partly drawn) [Compound 29], the DC50 was 8.9 nM and the Dmax amounted to 169%.
